ChEMBL document CHEMBL4828758, “Elucidation of Distinct Modular Assemblies of Smoothened Receptor by Bitopic Ligand Measurement” (J Med Chem, 2021)
Active and inactive are the calls of the source. The rule behind the calls is not given here.

Key:
Type in all cases: functional, cell-based
[1] = molecular target: Protein smoothened (Mus musculus) (UniProt P56726); test: Agonist activity at SMO in mouse NIH3T3 cells assessed as induction of SMO accumulation in primary cilia incubated for 12 hrs by AlexaFluor 488/ DAPI staining based immunofluorescence method
[2] = molecular target: Protein smoothened (Mus musculus) (UniProt P56726); test: Agonist activity at SMO in mouse NIH3T3 cells assessed as induction of SMO accumulation in primary cilia incubated for 12 hrs by fluorescence method; conditions: filed as agonist
[3] = molecular target: Protein smoothened (Mus musculus) (UniProt P56726); test: Agonist activity at SMO in mouse NIH3T3 cells assessed as fluorescent intensity of ciliary SMO incubated for 12 hrs by fluorescence method; conditions: filed as agonist
Protein smoothened [4] = molecular target: T1, Protein smoothened (Mus musculus, UniProt P56726); test: (§1) Agonist activity at SMO in mouse NIH3T3 cells incubated for 2 hrs by Bright-Glo luciferase assay
[5] = molecular target: Protein smoothened (Mus musculus) (UniProt P56726); test: (§2) Antagonist activity at SMO in mouse NIH3T3 cells preincubated for 2 hrs followed by SAG stimulation and measured after 24 hrs by Bright-Glo luciferase assay; conditions: time 26.0 hrs
[6] = molecular target: Protein smoothened (Mus musculus) (UniProt P56726); test: as §1
Protein smoothened [7] = molecular target: T1, Protein smoothened; test: as §2
[8] = molecular target: Protein smoothened (Mus musculus) (UniProt P56726); test: Antagonist activity at SMO in mouse NIH3T3 cells preincubated for 2 hrs followed by SAG stimulation and measured after 24 hrs in presence of GDC0449 by Bright-Glo luciferase assay; conditions: time 26.0 hrs
[9] = molecular target: Protein smoothened (Mus musculus) (UniProt P56726); test: Agonist activity at SMO in mouse NIH3T3 cells preincubated for 2 hrs followed by SAG stimulation and measured after 24 hrs in presence of GDC0449 by Bright-Glo luciferase assay; conditions: filed as agonist, time 26.0 hrs
[10] = molecular target: Protein smoothened (Mus musculus) (UniProt P56726); test: Antagonist activity at SMO in mouse NIH3T3 cells preincubated for 2 hrs followed by ShhN stimulation and measured after 24 hrs in presence of GDC0449 by Bright-Glo luciferase assay; conditions: filed as antagonist, time 26.0 hrs

T1 sequence (P56726 whole entry): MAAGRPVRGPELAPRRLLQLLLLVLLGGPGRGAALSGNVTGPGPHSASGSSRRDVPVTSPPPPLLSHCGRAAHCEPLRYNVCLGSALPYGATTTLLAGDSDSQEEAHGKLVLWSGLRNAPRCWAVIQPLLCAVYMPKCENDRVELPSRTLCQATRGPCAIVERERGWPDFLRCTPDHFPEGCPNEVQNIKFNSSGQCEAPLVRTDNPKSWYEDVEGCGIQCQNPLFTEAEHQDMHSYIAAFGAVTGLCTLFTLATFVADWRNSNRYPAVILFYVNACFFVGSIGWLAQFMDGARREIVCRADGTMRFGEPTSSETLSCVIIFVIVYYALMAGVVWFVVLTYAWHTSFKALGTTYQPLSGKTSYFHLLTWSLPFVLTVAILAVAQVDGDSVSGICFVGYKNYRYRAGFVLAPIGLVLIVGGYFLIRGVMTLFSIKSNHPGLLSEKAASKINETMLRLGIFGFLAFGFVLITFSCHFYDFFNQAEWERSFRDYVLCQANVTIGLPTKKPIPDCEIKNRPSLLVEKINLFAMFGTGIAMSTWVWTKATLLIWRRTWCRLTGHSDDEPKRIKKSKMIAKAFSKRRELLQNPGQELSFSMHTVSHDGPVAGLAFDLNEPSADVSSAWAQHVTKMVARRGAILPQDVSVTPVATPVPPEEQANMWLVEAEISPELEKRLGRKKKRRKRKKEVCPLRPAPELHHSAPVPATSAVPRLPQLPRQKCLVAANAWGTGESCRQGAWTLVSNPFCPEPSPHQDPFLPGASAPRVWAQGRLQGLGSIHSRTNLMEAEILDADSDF
Chain of Protein smoothened (Mus musculus) (P56726 whole entry): as above

Activity ([1]; filed as agonist)	Activity [2]	Activity [3]	SMILES	further results
Active	Active	Active	CN[C@H]1CC[C@H](N(Cc2cccc(-c3ccnc(OCCOCCOCCOCCn4cc(COCCOCCCCCC[C@@H](C)C5CC[C@H]6[C@@H]7CC=C8C[C@@H](O)CC[C@]8(C)[C@H]7CC[C@]56C)nn4)c3)c2)C(=O)c2sc3ccccc3c2Cl)CC1 (stereo partly specified)	EC50 (Protein smoothened [4]): 200 nM
–	–	–	CC(O)(CCCCCCOCCOCc1cn(CCOCCS(=O)(=O)c2ccc(C(=O)Nc3ccc(Cl)c(-c4ccccn4)c3)c(Cl)c2)nn1)C1CC[C@H]2[C@@H]3CC=C4C[C@@H](O)CC[C@]4(C)[C@H]3CC[C@]12C (stereo partly specified)	Activity [5]: inactive
–	–	–	CC(O)(CCCCCCOCCOCc1cn(CCOCCOCCOCCOCCOCCS(=O)(=O)c2ccc(C(=O)Nc3ccc(Cl)c(-c4ccccn4)c3)c(Cl)c2)nn1)C1CC[C@H]2[C@@H]3CC=C4C[C@@H](O)CC[C@]4(C)[C@H]3CC[C@]12C (stereo partly specified)	Activity [1]: inactive; Activity [6]: inactive; IC50 (Protein smoothened [7]): 20 nM
–	Active	Active	CN[C@H]1CC[C@H](N(Cc2cccc(-c3ccncc3)c2)C(=O)c2sc3ccccc3c2Cl)CC1	EC50 (Protein smoothened [4]): 16.9 nM
–	–	–	CC(O)(CCCCCCOCc1cn(CCOCCS(=O)(=O)c2ccc(C(=O)Nc3ccc(Cl)c(-c4ccccn4)c3)c(Cl)c2)nn1)C1CC[C@H]2[C@@H]3CC=C4C[C@@H](O)CC[C@]4(C)[C@H]3CC[C@]12C (stereo partly specified)	Activity [5]: inactive
Active	Active	Active	CN[C@H]1CC[C@H](N(Cc2cccc(-c3ccnc(OCCOCCOCCOCCn4cc(COCCOCCOCC(=O)N5C[C@@H](C)C[C@H]6O[C@]7(CC[C@@H]8C(=C7C)C[C@H]7[C@H]8CC=C8C[C@@H](O)CC[C@@]87C)[C@H](C)[C@@H]65)nn4)c3)c2)C(=O)c2sc3ccccc3c2Cl)CC1	–
Active	Active	Active	CN[C@H]1CC[C@H](N(Cc2cccc(-c3ccnc(OCCOCCOCCOCCn4cc(COCCOCCCCCC[C@](C)(O)C5CC[C@H]6[C@@H]7CC=C8C[C@@H](O)CC[C@]8(C)[C@H]7CC[C@]56C)nn4)c3)c2)C(=O)c2sc3ccccc3c2Cl)CC1 (stereo partly specified)	Activity [6]: inactive
Active	Active	Active	CN[C@H]1CC[C@H](N(Cc2cccc(-c3ccnc(OCCOCCOCCOCCn4cc(COCCOCCC#CCCC(C)(O)C5CC[C@H]6[C@@H]7CC=C8C[C@@H](O)CC[C@]8(C)[C@H]7CC[C@]56C)nn4)c3)c2)C(=O)c2sc3ccccc3c2Cl)CC1 (stereo partly specified)	–
–	–	–	C[C@H](CCCCCCOCCOCc1cn(CCOCCOCCOCCOCCOCCS(=O)(=O)c2ccc(C(=O)Nc3ccc(Cl)c(-c4ccccn4)c3)c(Cl)c2)nn1)C1CC[C@H]2[C@@H]3CC=C4C[C@@H](O)CC[C@]4(C)[C@H]3CC[C@]12C (stereo partly specified)	Activity [1]: inactive

SMILES	Activity ([1]; filed as agonist)	Activity [2]	Activity [3]	further results
CC1=C2C[C@H]3[C@@H](CC=C4C[C@@H](O)CC[C@@]43C)[C@@H]2CC[C@]12O[C@@H]1C[C@H](C)CN[C@H]1[C@H]2C	–	Active	Active	–
CC(C)CCC[C@](C)(O)[C@H]1CC[C@H]2[C@@H]3CC=C4C[C@@H](O)CC[C@]4(C)[C@H]3CC[C@@]21C	Active	Active	Active	Activity [8]: inactive; Activity [9]: Active; Activity [10]: Active
